According to US9796711B2, “Substituted pyrazolo[3,4-b]pyridin-6-carboxylic acids and method of use” (AbbVie S.àr.l., priority 2015, dated 2017):

Columns and labels:
ΔF508-CFTR [1] = target: T1, ΔF508-CFTR (Homo sapiens, UniProt P13569, DEL508-508); assay: CFTR cell surface levels using HRP-tagged ΔF508-CFTR expressing CFBE cells, intrinsic corrector capacity; format: cell-based; settings: HRP-tagged ΔF508-CFTR CFBE41o- cells, compounds alone (intrinsic corrector capacity), 20 hours at 33° C.; for % Activation: positive control 3 μM corrector; for EC50: read-out: EC50
T1 construct: host or cells: CFBE41o-, doxycycline-inducible
T1 sequence (P13569 with tags, fused parts or gaps DEL508-508): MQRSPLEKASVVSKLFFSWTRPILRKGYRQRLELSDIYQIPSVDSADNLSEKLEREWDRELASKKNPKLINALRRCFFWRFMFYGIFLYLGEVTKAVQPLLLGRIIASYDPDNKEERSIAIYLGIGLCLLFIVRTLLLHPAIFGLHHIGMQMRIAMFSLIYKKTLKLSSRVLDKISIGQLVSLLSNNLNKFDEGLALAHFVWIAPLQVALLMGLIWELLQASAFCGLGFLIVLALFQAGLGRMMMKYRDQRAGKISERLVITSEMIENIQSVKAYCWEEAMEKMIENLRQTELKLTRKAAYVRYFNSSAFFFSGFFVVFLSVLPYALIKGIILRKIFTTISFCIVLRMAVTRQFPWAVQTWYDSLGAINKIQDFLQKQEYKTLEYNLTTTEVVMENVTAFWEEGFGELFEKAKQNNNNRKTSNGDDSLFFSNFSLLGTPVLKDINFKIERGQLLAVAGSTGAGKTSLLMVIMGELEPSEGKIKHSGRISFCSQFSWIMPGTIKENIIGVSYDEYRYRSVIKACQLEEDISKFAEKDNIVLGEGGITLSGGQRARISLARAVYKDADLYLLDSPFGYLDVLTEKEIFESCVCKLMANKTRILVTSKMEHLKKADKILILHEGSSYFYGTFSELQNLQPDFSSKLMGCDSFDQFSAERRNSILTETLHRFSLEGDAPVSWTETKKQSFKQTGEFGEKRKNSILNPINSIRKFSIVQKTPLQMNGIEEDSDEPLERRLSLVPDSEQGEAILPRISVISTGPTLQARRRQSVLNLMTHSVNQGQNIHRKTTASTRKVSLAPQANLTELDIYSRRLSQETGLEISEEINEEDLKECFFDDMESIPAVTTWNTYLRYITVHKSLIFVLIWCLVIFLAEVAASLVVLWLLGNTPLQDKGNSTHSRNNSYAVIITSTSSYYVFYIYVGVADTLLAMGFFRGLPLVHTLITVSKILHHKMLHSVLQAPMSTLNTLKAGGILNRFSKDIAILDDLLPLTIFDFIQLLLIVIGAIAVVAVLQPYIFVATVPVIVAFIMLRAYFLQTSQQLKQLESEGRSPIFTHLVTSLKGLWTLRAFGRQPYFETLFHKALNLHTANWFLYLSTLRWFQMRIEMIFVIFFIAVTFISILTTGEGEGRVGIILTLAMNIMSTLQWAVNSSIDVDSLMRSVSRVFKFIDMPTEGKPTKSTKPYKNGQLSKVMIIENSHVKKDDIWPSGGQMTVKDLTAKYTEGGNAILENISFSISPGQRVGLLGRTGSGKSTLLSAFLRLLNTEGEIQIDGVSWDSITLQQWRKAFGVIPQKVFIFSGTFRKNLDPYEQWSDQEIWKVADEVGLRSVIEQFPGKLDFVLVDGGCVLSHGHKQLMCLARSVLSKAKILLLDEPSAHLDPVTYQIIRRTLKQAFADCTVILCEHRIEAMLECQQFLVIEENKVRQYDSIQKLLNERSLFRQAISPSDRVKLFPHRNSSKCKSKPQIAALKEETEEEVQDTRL
Outline: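 Here the cells express ΔF508-CFTR with horseradish peroxidase inserted in extracellular loop 4, so only rescued channel at the surface gives luminescent signal. Compounds act on their own, 20 h at the reduced temperature of 33 °C; values are percent activity relative to DMSO and a 3 μM corrector.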

ΔF508-CFTR [2] = target: T1, ΔF508-CFTR; assay: CFTR cell surface levels using HRP-tagged ΔF508-CFTR expressing CFBE cells, in the presence of a co-corrector; format: cell-based; settings: HRP-tagged ΔF508-CFTR expressing CFBE cells, in the presence of 3 μM co-corrector; for EC50: read-out: EC50
Outline: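 Cells were seeded with 0.5 μg/mL doxycycline and held 68 h at 37 °C. Test compounds plus 3 μM co-corrector (final 0.1% DMSO) were then added for 20 h at 33 °C. Washed cells received HRP substrate, and luminescence was normalized between DMSO and 3 μM co-corrector controls.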

Cc1nn(C)cc1-c1cc(C(=O)O)nc2c1c(C(C)C)nn2C1CCCCC1 [compound 352, 1-cyclohexyl-4-(1,3-dimethyl-1H-pyrazol-4-yl)-3-(propan-2-yl)-1H-pyrazolo[3,4-b]pyridine-6-carboxylic acid]
% Activation (ΔF508-CFTR [1]): 55.175%
EC50 (ΔF508-CFTR [1]): 1510 nM
% Activation (ΔF508-CFTR [2]): 210.15%
EC50 (ΔF508-CFTR [2]): 1430 nM

O=C(O)c1cc(-c2ccc(N3CCOCC3)cc2)c2c(C3CCC3)nn(-c3cc(F)cc(F)c3)c2n1 [compound 353, 3-cyclobutyl-1-(3,5-difluorophenyl)-4-[4-(morpholin-4-yl)phenyl]-1H-pyrazolo[3,4-b]pyridine-6-carboxylic acid]
% Activation (ΔF508-CFTR [1]): 224.1%
EC50 (ΔF508-CFTR [1]): 506 nM
% Activation (ΔF508-CFTR [2]): 438.65%
EC50 (ΔF508-CFTR [2]): 459 nM

O=C(O)c1cc(-c2ccc(N3CCOCC3)cc2)c2c(C3CCC3)nn(-c3cccc(C(F)(F)F)c3)c2n1 [compound 354, 3-cyclobutyl-4-[4-(morpholin-4-yl)phenyl]-1-[3-(trifluoromethyl)phenyl]-1H-pyrazolo[3,4-b]pyridine-6-carboxylic acid]
% Activation (ΔF508-CFTR [1]): 212.07%
EC50 (ΔF508-CFTR [1]): 450 nM
% Activation (ΔF508-CFTR [2]): 429.9%
EC50 (ΔF508-CFTR [2]): 323 nM

Cc1ccc(-n2nc(C3CCC3)c3c(-c4ccc(N5CCOCC5)cc4)cc(C(=O)O)nc32)cc1F [compound 355, 3-cyclobutyl-1-(3-fluoro-4-methylphenyl)-4-[4-(morpholin-4-yl)phenyl]-1H-pyrazolo[3,4-b]pyridine-6-carboxylic acid]
% Activation (ΔF508-CFTR [1]): 180.03%
EC50 (ΔF508-CFTR [1]): 740 nM
% Activation (ΔF508-CFTR [2]): 360.63%
EC50 (ΔF508-CFTR [2]): 556 nM

O=C(O)c1cc(-c2ccc(N3CCOCC3)cc2)c2c(C3CCC3)nn(-c3ccc(C(F)(F)F)cc3)c2n1 [compound 356, 3-cyclobutyl-4-[4-(morpholin-4-yl)phenyl]-1-[4-(trifluoromethyl)phenyl]-1H-pyrazolo[3,4-b]pyridine-6-carboxylic acid]
% Activation (ΔF508-CFTR [1]): 152.8%
EC50 (ΔF508-CFTR [1]): 489 nM
% Activation (ΔF508-CFTR [2]): 331.9%
EC50 (ΔF508-CFTR [2]): 428 nM

CN(C)c1ccc(-n2nc(C3CCC3)c3c(-c4ccc(N5CCOCC5)cc4)cc(C(=O)O)nc32)cc1 [compound 357, 3-cyclobutyl-1-[4-(dimethylamino)phenyl]-4-[4-(morpholin-4-yl)phenyl]-1H-pyrazolo[3,4-b]pyridine-6-carboxylic acid]
% Activation (ΔF508-CFTR [1]): 113.47%
EC50 (ΔF508-CFTR [1]): 885 nM
% Activation (ΔF508-CFTR [2]): 274.8%
EC50 (ΔF508-CFTR [2]): 806 nM

COC1CCN(c2cc(C(=O)O)nc3c2c(C2CCC2)nn3-c2ccccc2)CC1 [compound 358, 3-cyclobutyl-4-(4-methoxypiperidin-1-yl)-1-phenyl-1H-pyrazolo[3,4-b]pyridine-6-carboxylic acid]
% Activation (ΔF508-CFTR [1]): 205.07%
EC50 (ΔF508-CFTR [1]): 410 nM
% Activation (ΔF508-CFTR [2]): 370.47%
EC50 (ΔF508-CFTR [2]): 206 nM

Cc1cccc(-n2nc(C(C)C)c3c(N4CCC5(CC4)CN(C)C(=O)O5)cc(C(=O)O)nc32)c1 [compound 359, 4-(3-methyl-2-oxo-1-oxa-3,8-diazaspiro[4.5]decan-8-yl)-1-(3-methylphenyl)-3-(propan-2-yl)-1H-pyrazolo[3,4-b]pyridine-6-carboxylic acid]
% Activation (ΔF508-CFTR [1]): 142%
EC50 (ΔF508-CFTR [1]): 2040 nM
% Activation (ΔF508-CFTR [2]): 349.55%
EC50 (ΔF508-CFTR [2]): 2180 nM

Cc1cccc(-n2nc(C(C)C)c3c(N4CCC5(CCCCC5)CC4)cc(C(=O)O)nc32)c1 [compound 360, 4-(3-azaspiro[5.5]undecan-3-yl)-1-(3-methylphenyl)-3-(propan-2-yl)-1H-pyrazolo[3,4-b]pyridine-6-carboxylic acid]
% Activation (ΔF508-CFTR [1]): 96.335%
EC50 (ΔF508-CFTR [1]): 1170 nM
% Activation (ΔF508-CFTR [2]): 293%
EC50 (ΔF508-CFTR [2]): 1030 nM

CC(C)c1nn(C2CCCCC2)c2nc(C(=O)O)cc(-c3cnn(C(C)C)c3)c12 [compound 361, 1-cyclohexyl-3-(propan-2-yl)-4-[1-(propan-2-yl)-1H-pyrazol-4-yl]-1H-pyrazolo[3,4-b]pyridine-6-carboxylic acid]
% Activation (ΔF508-CFTR [1]): 80.015%
EC50 (ΔF508-CFTR [1]): 1540 nM
% Activation (ΔF508-CFTR [2]): 227.65%
EC50 (ΔF508-CFTR [2]): 1160 nM

CC(C)c1nn(C2CCCCC2)c2nc(C(=O)O)cc(-c3cccn3C)c12 [compound 362, 1-cyclohexyl-4-(1-methyl-1H-pyrrol-2-yl)-3-(propan-2-yl)-1H-pyrazolo[3,4-b]pyridine-6-carboxylic acid]
% Activation (ΔF508-CFTR [1]): 44.405%
EC50 (ΔF508-CFTR [1]): 2030 nM
% Activation (ΔF508-CFTR [2]): 170.85%
EC50 (ΔF508-CFTR [2]): 1800 nM

CC(C)c1nn(C2CCCCC2)c2nc(C(=O)O)cc(-c3cn[nH]c3)c12 [compound 363, 1-cyclohexyl-3-(propan-2-yl)-4-(1H-pyrazol-4-yl)-1H-pyrazolo[3,4-b]pyridine-6-carboxylic acid]
% Activation (ΔF508-CFTR [1]): 56.625%
EC50 (ΔF508-CFTR [1]): 2470 nM
% Activation (ΔF508-CFTR [2]): 187.2%
EC50 (ΔF508-CFTR [2]): 2330 nM

CC(C)c1nn(C2CCCCC2)c2nc(C(=O)O)cc(-c3ccc4c(c3)CNC4=O)c12 [compound 364, 1-cyclohexyl-4-(1-oxo-2,3-dihydro-1H-isoindol-5-yl)-3-(propan-2-yl)-1H-pyrazolo[3,4-b]pyridine-6-carboxylic acid]
% Activation (ΔF508-CFTR [1]): 118.28%
EC50 (ΔF508-CFTR [1]): 2280 nM
% Activation (ΔF508-CFTR [2]): 282.3%
EC50 (ΔF508-CFTR [2]): 1640 nM

CC(C)c1nn(C2CCCOC2)c2nc(C(=O)O)cc(-c3ccc(N4CCC(C#N)CC4)nc3)c12 (centres unmarked) [compound 365, 4-[6-(4-cyanopiperidin-1-yl)pyridin-3-yl]-1-(oxan-3-yl)-3-(propan-2-yl)-1H-pyrazolo[3,4-b]pyridine-6-carboxylic acid]
% Activation (ΔF508-CFTR [1]): 147.55%
EC50 (ΔF508-CFTR [1]): 2550 nM
% Activation (ΔF508-CFTR [2]): 278.05%
EC50 (ΔF508-CFTR [2]): 1540 nM

CC(C)c1nn(C2CCCCC2)c2nc(C(=O)O)cc(-c3cnc(N4CCCC(C#N)C4)nc3)c12 (centres unmarked) [compound 366, 4-[2-(3-cyanopiperidin-1-yl)pyrimidin-5-yl]-1-cyclohexyl-3-(propan-2-yl)-1H-pyrazolo[3,4-b]pyridine-6-carboxylic acid]
% Activation (ΔF508-CFTR [1]): 199.1%
EC50 (ΔF508-CFTR [1]): 436 nM
% Activation (ΔF508-CFTR [2]): 385.85%
EC50 (ΔF508-CFTR [2]): 602 nM

O=C(O)c1cc(N2CCC(OCC(=O)N3CCCC3)CC2)c2c(C3CCC3)nn(-c3ccccc3)c2n1 [compound 367, 3-cyclobutyl-4-{4-[2-oxo-2-(pyrrolidin-1-yl)ethoxy]piperidin-1-yl}-1-phenyl-1H-pyrazolo[3,4-b]pyridine-6-carboxylic acid]
% Activation (ΔF508-CFTR [1]): 239.55%
EC50 (ΔF508-CFTR [1]): 1010 nM
% Activation (ΔF508-CFTR [2]): 406.35%
EC50 (ΔF508-CFTR [2]): 669 nM

COCC1CCN(c2cc(C(=O)O)nc3c2c(C(C)C)nn3-c2cccc(N(C)C)c2)CC1 [compound 368, 1-[3-(dimethylamino)phenyl]-4-[4-(methoxymethyl)piperidin-1-yl]-3-(propan-2-yl)-1H-pyrazolo[3,4-b]pyridine-6-carboxylic acid]
% Activation (ΔF508-CFTR [1]): 357.3%
EC50 (ΔF508-CFTR [1]): 521 nM
% Activation (ΔF508-CFTR [2]): 515.5%
EC50 (ΔF508-CFTR [2]): 290 nM

CC(C)c1nn(-c2ccnc(N3CCCC3)c2)c2nc(C(=O)O)cc(-c3ccc(N4CCC(C#N)CC4)nc3)c12 [compound 369, 4-[6-(4-cyanopiperidin-1-yl)pyridin-3-yl]-3-(propan-2-yl)-1-[2-(pyrrolidin-1-yl)pyridin-4-yl]-1H-pyrazolo[3,4-b]pyridine-6-carboxylic acid]
% Activation (ΔF508-CFTR [1]): 251.6%
EC50 (ΔF508-CFTR [1]): 843 nM
% Activation (ΔF508-CFTR [2]): 389.2%
EC50 (ΔF508-CFTR [2]): 471 nM

CC(C)c1nn(C2CCCCC2)c2nc(C(=O)O)cc(-c3ccnn3C)c12 [compound 370, 1-cyclohexyl-4-(1-methyl-1H-pyrazol-5-yl)-3-(propan-2-yl)-1H-pyrazolo[3,4-b]pyridine-6-carboxylic acid]
% Activation (ΔF508-CFTR [1]): 19.18%
EC50 (ΔF508-CFTR [1]): > 10000 nM
% Activation (ΔF508-CFTR [2]): 133%
EC50 (ΔF508-CFTR [2]): > 10000 nM

CC(C)c1nn(C2CCCCC2)c2nc(C(=O)O)cc(C3=CCN(C(=O)OC(C)(C)C)CC3)c12 [compound 371, 4-[1-(tert-butoxycarbonyl)-1,2,3,6-tetrahydropyridin-4-yl]-1-cyclohexyl-3-(propan-2-yl)-1H-pyrazolo[3,4-b]pyridine-6-carboxylic acid]
% Activation (ΔF508-CFTR [1]): 116.35%
EC50 (ΔF508-CFTR [1]): 1310 nM
% Activation (ΔF508-CFTR [2]): 283.6%
EC50 (ΔF508-CFTR [2]): 1100 nM

CC(C)OC1CCN(c2cc(C(=O)O)nc3c2c(C2CCC2)nn3-c2ccccc2)CC1 [compound 372, 3-cyclobutyl-1-phenyl-4-{4-[(propan-2-yl)oxy]piperidin-1-yl}-1H-pyrazolo[3,4-b]pyridine-6-carboxylic acid]
% Activation (ΔF508-CFTR [1]): 179%
EC50 (ΔF508-CFTR [1]): 262 nM
% Activation (ΔF508-CFTR [2]): 388.6%
EC50 (ΔF508-CFTR [2]): 126 nM

COCC1CCCN(c2cc(C(=O)O)nc3c2c(C2CCC2)nn3-c2ccccc2)C1 (centres unmarked) [compound 373, 3-cyclobutyl-4-[3-(methoxymethyl)piperidin-1-yl]-1-phenyl-1H-pyrazolo[3,4-b]pyridine-6-carboxylic acid]
% Activation (ΔF508-CFTR [1]): 126.3%
EC50 (ΔF508-CFTR [1]): 469 nM
% Activation (ΔF508-CFTR [2]): 306.9%
EC50 (ΔF508-CFTR [2]): 304 nM

CC(C)c1nn(C2CCCCC2)c2nc(C(=O)O)cc(-c3cnc(N(C)C4CCN(C(=O)OC(C)(C)C)CC4)nc3)c12 [compound 374, 4-(2-{[1-(tert-butoxycarbonyl)piperidin-4-yl](methyl)amino}pyrimidin-5-yl)-1-cyclohexyl-3-(propan-2-yl)-1H-pyrazolo[3,4-b]pyridine-6-carboxylic acid]
% Activation (ΔF508-CFTR [1]): 114.2%
EC50 (ΔF508-CFTR [1]): 595 nM
% Activation (ΔF508-CFTR [2]): 297.35%
EC50 (ΔF508-CFTR [2]): 464 nM
